What all share (assay): ≥ marks a high value that may be exact or a test limit, other limits are often not marked, values filed in µg/mL are converted to µM
Assay [1] concerns Aspergillus fumigatus KCTC 6145.
The subject of assay [2] is Candida parapsilosis CCARM 14016.
Assay [3] relates to Fusarium verticillioides KCTC 6149.
Assay [4] relates to Trichosporon beigelii KCTC 7707.
Assay [5] concerns Candida tropicalis KCTC 7221.
For assay [6], the system named is Aspergillus flavus KCTC 6905.
Assay [7] has as its system Candida krusei CCARM 14017.
For assay [8], the system named is Escherichia coli CVCC 1515.
Assay [9] concerns Salmonella enterica subsp. enterica serovar Pullorum CVCC 1789.
The subject of assay [10] is Aeromonas veronii ATCC 35624.
The test system of assay [11] is Salmonella enterica subsp. enterica serovar Enteritidis CVCC 3377.
In assay [12] the test system is Staphylococcus hyicus NCTC 10350.
In assay [13] the test system is Candida albicans CMCC 98001.
Assay [14] concerns Staphylococcus aureus ATCC 25923.
Assay [15] concerns Escherichia coli CVCC 25922.
In assay [16] the test system is Escherichia coli CVCC O157.
For assay [17], the system named is Salmonella enterica subsp. enterica serovar Typhimurium ATCC 14028.
The subject of assay [18] is Pseudomonas aeruginosa CICC 21630.
The test system of assay [19] is Salmonella enterica subsp. enterica serovar Pullorum CVCC 533.
Assay [20] concerns Aeromonas veronii X-1-06909.
Assay [21] concerns Aeromonas veronii CL0901.
In assay [22] the test system is Staphylococcus hyicus.
Assay [23] deals with Staphylococcus aureus ATCC 546.
Assay [24] relates to Salmonella enterica subsp. enterica serovar Pullorum CVCC 1809.
Assay [25] concerns Staphylococcus aureus ATCC 43300.
The subject of assay [26] is Escherichia coli CVCC 195.
The test system of assay [27] is Staphylococcus aureus ATCC 29231.
Assay [28] deals with Staphylococcus aureus MW2.
Assay [29] concerns Enterococcus faecium E007.
In assay [30] the test system is Acinetobacter baumannii ATCC 7978.
Assay [31] deals with Klebsiella pneumoniae WGLW2.
For assay [32], the system named is Escherichia coli.
Assay [33] concerns Yersinia enterocolitica.
The test system of assay [34] is Candida albicans ATCC 10231.
The subject of assay [35] is Staphylococcus aureus ATCC 29213.
For assay [36], the system named is Salmonella sp.
Assay [37] has as its system Pseudomonas aeruginosa ATCC 27853.
In assay [38] the test system is Escherichia coli ATCC 25922.
Assay [39] has as its system Salmonella enterica subsp. enterica serovar Enteritidis.
Assay [40] has as its system Cryptococcus neoformans ATCC 32264.
Assay [41] relates to Candida albicans.
In assay [42] the test system is Staphylococcus aureus MR.
Assay [43] deals with Staphylococcus aureus ATCC 49476.

Experimental findings from DBAASP are described below.

For orientation: MIC means the smallest concentration in the dilution series that meets the test's criterion for growth inhibition.

In brackets after ≈: the same amount, converted by molar mass. Several values for one entry are separate records, joined by “and”; a condition that tells them apart may be missing. Equal entries are not always repeated.

As for `CC[C@H](C)[C@H](NC(=O)CNC(=O)[C@H](CCC(N)=O)NC(=O)[C@H](C)NC(=O)[C@@H](NC(=O)[C@H](CCCCN)NC(=O)[C@H](CCCCN)NC(=O)[C@H](CC(C)C)NC(=O)[C@H](C)NC(=O)[C@H](CC(N)=O)NC(=O)[C@H](C)NC(=O)CN)C(C)C)C(=O)N[C@@H](Cc1cnc[nH]1)C(=O)N[C@@H](CCC(=O)O)C(=O)N[C@@H](C)C(=O)N[C@H](C(=O)N[C@@H](CCCCN)C(=O)N[C@@H](CC(C)C)C(=O)N[C@H](C(=O)N[C@@H](CC(N)=O)C(=O)N[C@@H](CC(N)=O)C(=O)N[C@@H](Cc1cnc[nH]1)C(=O)N[C@H](C(=O)N[C@@H](CCC(N)=O)C(N)=O)C(C)C)[C@@H](C)CC)[C@@H](C)CC` [GANALKKVAQGIHEAIKLINNHVQ], the minimum inhibitory concentration (MIC) in assay [1] is 24 µM and 16 µM; in assay [2], no less than 64 µM; in [3], 24 µM and 16 µM; in assay [4], 2 µM (≈ 5.13 µg/mL); in [5] it was 2 µM and 1.5 µM; in assay [6], ≥ 32 µM and 12 µM. In addition, in assay [7], the MIC was 6 µM and 4 µM.
`CC(C)[C@H](N)C(=O)N[C@@H](Cc1ccccc1)C(=O)N[C@@H](C)C(=O)N[C@@H](Cc1c[nH]c2ccccc12)C(=O)N[C@@H](CC(N)=O)C(=O)N[C@H](C(=O)N[C@H]1CSSC[C@@H](C(=O)N[C@@H](Cc2cnc[nH]2)C(=O)N[C@@H](CCCN=C(N)N)C(=O)N[C@@H](CCCN=C(N)N)C(=O)N[C@@H](C)C(=O)N[C@@H](CC(N)=O)C(N)=O)NC(=O)[C@H](C(C)C)NC(=O)[C@H](CCCN=C(N)N)NC(=O)[C@H](C(C)C)NC(=O)[C@H](C(C)C)NC(=O)[C@H](CC(N)=O)NC(=O)[C@H](CCCN=C(N)N)NC(=O)[C@H](Cc2ccc(O)cc2)NC(=O)[C@H](C(C)C)NC1=O)C(C)C` [VFAWNVCVYRNVVRVCHRRAN]: the MIC is 1.56 µM (≈ 4 µg/mL) in assay [8]; 6.25 µM (≈ 16 µg/mL) in assay [9]; 6.25 µM (≈ 16 µg/mL) in assay [10]; 0.781 µM (≈ 2 µg/mL) in assay [11]; 25 µM (≈ 63.9 µg/mL) in assay [12]; no less than 50 µM in [13]. Further, the MIC stood at 12.5 µM (≈ 32 µg/mL) in assay [14]; 3.12 µM (≈ 7.99 µg/mL) in assay [15]; 3.12 µM (≈ 7.99 µg/mL) in [16]; 6.25 µM (≈ 16 µg/mL) in assay [17]; 12.5 µM (≈ 32 µg/mL) in assay [18]; 6.25 µM (≈ 16 µg/mL) in assay [19]. Besides, the MIC was 12.5 µM (≈ 32 µg/mL) in assay [20]; 12.5 µM (≈ 32 µg/mL) in assay [21]; 12.5 µM (≈ 32 µg/mL) in assay [22]; 6.25 µM (≈ 16 µg/mL) in assay [23]; 3.12 µM (≈ 7.99 µg/mL) in assay [24]; 12.5 µM (≈ 32 µg/mL) in [25]. This compound also had an MIC in assay [26] of 3.12 µM (≈ 7.99 µg/mL).
Consider `CC[C@H](C)[C@H](NC(=O)[C@H](CCCCN)NC(=O)[C@H](CCCCN)NC(=O)[C@H](CC(C)C)NC(=O)[C@@H](NC(=O)[C@H](CCCCN)NC(=O)[C@H](Cc1c[nH]c2ccccc12)NC(=O)[C@@H](N)CC(C)C)[C@@H](C)CC)C(=O)N[C@@H](Cc1c[nH]c2ccccc12)C(=O)N[C@@H](CCCN=C(N)N)C(=O)N[C@H](C(=O)N[C@@H](CC(C)C)C(=O)N[C@@H](CCCCN)C(=O)N[C@@H](CC(N)=O)C(=O)N[C@@H](Cc1c[nH]c2ccccc12)C(=O)N[C@@H](CCCN=C(N)N)C(=O)O)C(C)C` [LWKILKKIWRVLKNWR], for which the MIC in assay [27] is 14.7 µM (≈ 32 µg/mL); in assay [28] it was 14.7 µM (≈ 32 µg/mL); in [29] it was no less than 58.7 µM; in [30], no less than 58.7 µM; in [31], 29.4 µM (≈ 64 µg/mL).
`CC[C@H](C)[C@H](NC(=O)[C@H](CCC(N)=O)NC(=O)[C@@H](N)CCCN=C(N)N)C(=O)N[C@@H](CCCN=C(N)N)C(=O)N[C@@H](CCCN=C(N)N)C(=O)N[C@@H](Cc1c[nH]c2ccccc12)C(=O)N[C@@H](Cc1c[nH]c2ccccc12)C(=O)N[C@@H](CCC(N)=O)C(=O)N[C@@H](Cc1c[nH]c2ccccc12)C(N)=O` [RQIRRWWQW]: the MIC in assay [32] was 44.7 µM (≈ 63.2 µg/mL); in [33] it was no less than 50 µM; in assay [34], 50 µM (≈ 70.7 µg/mL); in assay [35], greater than 50 µM; in [36], 30 µM (≈ 42.4 µg/mL); in assay [37], greater than 50 µM. The MIC is greater than 50 µM in assay [38], no less than 50 µM in assay [39], 25 µM (≈ 35.3 µg/mL) in [40] and greater than 50 µM in assay [25].
As for `CC[C@H](C)[C@H](NC(=O)[C@H](C)NC(=O)[C@H](CCCCN)NC(=O)CNC(=O)[C@H](C)NC(=O)[C@H](CO)NC(=O)[C@H](Cc1ccccc1)NC(=O)[C@H](CC(C)C)NC(=O)CNC(=O)CNC(=O)[C@@H](NC(=O)[C@@H](NC(=O)[C@H](Cc1cnc[nH]1)NC(=O)[C@H](Cc1cnc[nH]1)NC(=O)[C@@H](NC(=O)[C@@H](N)Cc1ccccc1)[C@@H](C)CC)[C@@H](C)CC)[C@@H](C)CC)C(=O)N[C@@H](Cc1cnc[nH]1)C(=O)N[C@@H](CCCN=C(N)N)C(=O)N[C@@H](Cc1cnc[nH]1)C(=O)N[C@@H](Cc1cnc[nH]1)C(=O)N[C@@H](CCCN=C(N)N)C(=O)N[C@@H](CCCN=C(N)N)C(=O)N[C@@H](CCCN=C(N)N)C(=O)N[C@@H](CCCN=C(N)N)C(=O)N[C@@H](CCCN=C(N)N)C(=O)O` [FIHHIIGGLFSAGKAIHRHHRRRRR], the MIC in assay [41] was 42.3 µM (≈ 128 µg/mL); in assay [42], no less than 169 µM; in assay [43] it was no less than 42.3 µM; in assay [37], 84.5 µM (≈ 256 µg/mL).
